# Reference: patent US6972319B1, “Pituitary adenylate cyclase activating peptide (PACAP)receptor 3 (R3) agonists and their pharmacological methods of use” (priority 1999, dated 2005)
# Like-named read-outs stand apart in the source and are kept apart here. No end group written: not given here.
# Assays:
# PACAP-R3 = target: T1, PACAP-R3 (Homo sapiens, UniProt P41587); test: Cyclic AMP SPA on CHO cells expressing PACAP R3; assay type: cell-based; parameters: expressed in transfected cells; host or cells: CHO cells (Geneticin selection); details: for R3 Selectivity: ratio of EC50 at R2 versus EC50 at R3
# T1 sequence (P41587 24-438): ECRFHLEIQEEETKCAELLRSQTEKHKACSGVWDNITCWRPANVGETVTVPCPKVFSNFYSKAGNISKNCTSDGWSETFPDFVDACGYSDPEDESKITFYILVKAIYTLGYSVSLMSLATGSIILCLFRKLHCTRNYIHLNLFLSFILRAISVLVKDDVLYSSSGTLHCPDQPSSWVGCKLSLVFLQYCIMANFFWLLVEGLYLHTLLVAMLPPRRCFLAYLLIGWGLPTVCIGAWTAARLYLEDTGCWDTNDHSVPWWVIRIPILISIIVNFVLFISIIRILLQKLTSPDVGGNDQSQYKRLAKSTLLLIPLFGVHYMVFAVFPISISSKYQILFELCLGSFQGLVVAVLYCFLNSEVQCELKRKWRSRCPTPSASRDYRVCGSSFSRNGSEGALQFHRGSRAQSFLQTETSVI
# How it was run: (§1)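 Potency reflects cyclic AMP accumulation, determined by SPA, after a 15 min, 37 C peptide exposure of CHO cells carrying the human receptor. Values are expressed relative to the maximal PACAP27 effect, with EC50 taken at its 50% level.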
# [1] = Intraperitoneal glucose tolerance test (IPGTT), plasma glucose in rats; assay type: in vivo, Wistar rats; details: for Plasma Glucose (% of Basal) s.c.: plasma glucose after IPGTT (1 g/kg glucose), 1 nmol/kg peptide s.c.; for Plasma Glucose (% of Basal) s.c. / Plasma Glucose (% of Basal) i.v.: % of vehicle; for Plasma Glucose (% of Basal) i.v.: plasma glucose area under the curve after IPGTT (1 g/kg glucose), 1 nmol/kg peptide i.v.; for elevation of plasma glucose 30 minutes after IPGTT: 1 nmole/kg s.c., rats, FIG. 7
# Description: Wistar rats are fasted overnight and then anesthetized with pentobarbital. The rats were eye-bled (zero time) and the peptide (in 1% human albumin) was injected into the tail vein. Five minutes later, 1 g/kg of glucose (in saline) was injected intraperitoneally, and the rats were eye-bled after 15, 30 and 60 minutes. Plasma glucose levels were determined using the Technicon Axon autoanalyzer, Bayer Diagnosics division of Bayer Corporation, Tarrytown N.Y., operated using Method No. SM4-2143F90“Glucose”.
# Wistar rats were fasted overnight and then anesthetized with Pentobarbital. The rats were eye-bled (zero time) and the peptide (in 1% human albumin) was injected subcutaneously. Five minutes later, 1 g/kg of glucose (in saline) was injected intraperitoneally, and the rats were eye-bled after 30 minutes.
# Plasma glucose: Data are expressed as % of vehicle of plasma glucose area under the curve after IPGTT (1 g/kg glucose) after treatment with 1 nmol/kg dose of the peptide. […] The present inventors have shown for the first time that this is because the effects of R2 and R3 on glucose tend to cancel each other out. […] Therefore, R3-selectivity appears to be a desirable attribute for medicaments which are to be employed in achieving blood glucose reduction, for treatment of type 2 diabetes.
# [2] = Peptide-induced elevation of plasma insulin after IVGTT in rats; assay type: in vivo; details: one minute after IVGTT (0.4 g/kg glucose), Wistar rats
# Description: Wistar rats are fasted overnight (17 hrs) and then anesthetized with pentobarbital (0.1 ml/100 g BW). Glucose (0.4 g/kg dissolved in 1% human albumin-saline)+/−peptide (dissolved in 1% human albumin-saline) is injected intravenously into the tail vein. The rats are eye-bled 1 minute after the injection and 50-100 ul of the plasma are assayed for insulin level with the Linco RIA kit (Linco Research, Inc., St. Charles, Mo.).
# In accordance with the protocol of example 2 above, overnight fasted Wistar rats were anesthetized with pentobarital; i.v. injected with glucose±peptide and eye bled after 1 minute. N=12 rats/group. […] The peptide or vehicle was given i.v. followed by a glucose load given i.p. in accordance with example 3. The plasma glucose was followed over the time period indicated.
# Plasma insulin: Data are expressed as % of plasma insulin one minute after IVGTT (0.4 g/kg glucose) with either saline, 0.1 nmol/kg P51, P55, P60, P66 or 1 nmole/kg of the other peptides in Wistar rats. Blood was drawn from the eye and insulin was measured with the rat insulin RIA kit (Linco Research, Inc., St. Charles, Mo.).
# PACAP-R2 = target: T2, PACAP-R2 (Homo sapiens, UniProt P32241); test: Cyclic AMP SPA on CHO cells transfected with PACAP-R2; assay type: cell-based; details: concentration at which 50% of maximum PACAP27 activity is achieved, NA = no detectable activities
# T2 construct: expressed in transfected cells; host or cells: CHO cells
# T2 sequence (P32241 31-457): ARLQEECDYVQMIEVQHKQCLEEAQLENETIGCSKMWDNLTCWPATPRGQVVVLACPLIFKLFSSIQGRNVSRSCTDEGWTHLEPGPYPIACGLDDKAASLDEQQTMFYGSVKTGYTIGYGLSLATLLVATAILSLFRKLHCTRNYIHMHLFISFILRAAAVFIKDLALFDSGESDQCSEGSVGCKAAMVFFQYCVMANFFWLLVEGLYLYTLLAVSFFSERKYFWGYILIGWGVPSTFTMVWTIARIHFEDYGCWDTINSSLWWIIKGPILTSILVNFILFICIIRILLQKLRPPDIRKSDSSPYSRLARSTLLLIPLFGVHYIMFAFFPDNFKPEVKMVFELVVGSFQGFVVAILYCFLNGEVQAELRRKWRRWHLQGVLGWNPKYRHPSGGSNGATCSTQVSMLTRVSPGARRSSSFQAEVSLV
# How it was run: as §1
# rat islets = test: Insulin secretion by isolated rat islets; assay type: cell-based, Sprague-Dawley rats; details: for Islet Insulin Release (% of Basal): 10 nM peptide, 2 hrs, 8 mM glucose, % of [insulin] in 8 mM glucose alone
# Description: Sprague Dawley rats (275-320 g) were used as the source of donor islets. Briefly, the pancreas was filled with 10 ml of cold reconstituted Liberase RI (Boehringer Manheim), harvested and incubated with additional 5 ml enzyme solution in water bath for 30 minutes. Tissue suspension was washed twice with cold 10% FBS/Hanks buffer (Gibco), resuspended in 8 ml 25% ficoll (Sigma) and then layered with 5 ml each of 23%, 20% and 11% ficoll. The islets in the 20% layer after centrifugation were removed, washed twice with cold 10% FBS/Hank buffer and resuspended in 10% FBS/RPMI 1640 media (Sigma).
# Islet insulin release: Rat islets were isolated from Sprague-Dawley rats as described in example 1 and treated with either vehicle or specified peptide (10 nM) for 2 hrs. Insulin concentration in the medium was measured with the Linco rat insulin RIA kit. Glucose concentration in the medium was 8 mM. The data are expressed as % of [insulin] in 8 mM glucose alone.
# [3] = cAMP SPA, CHO cells transfected with PACAP-R3, concentration at which 50% of maximum PACAP27 activity is achieved, NA = no detectable activities, read-out: R3 EC50
Compound,EC50 (PACAP-R3; [3]) [nM],R3 Selectivity (PACAP-R3),Plasma Glucose (% of Basal) s.c. [1] [%],Plasma Glucose (% of Basal) i.v. [1] [%],Plasma Insulin (% of Basal) ([2]; 1 nmole/kg peptide i.v.) [%],"EC50 (PACAP-R2; cAMP SPA, read-out: R2 EC50) [nM]",Islet Insulin Release (% of Basal) (rat islets) [%],elevation of plasma glucose 30 minutes after IPGTT [1],Plasma Insulin (% of Basal) ([2]; 0.1 nmol/kg peptide i.v.) [%],EC50 (PACAP-R3) [nM],"disposal of blood glucose ([1]; peptide i.v. followed by glucose load i.p., FIG. 5)","EC50 (PACAP-R2; R2 EC50, cAMP SPA) [nM]","release of insulin from isolated rat islets (rat islets; 0.1-100 nM, 3 or 8 mM glucose, FIGS. 4A-4B)"
HSDAVFTDNYTRLRKQLAAKKYLNDIKKKRY [Peptide R3P36],0.4,>200,78,73,255,> 90,–,–,–,–,–,–,–
PACAP 27: 27-amino acid form of pituitary adenylate cyclase activating peptide with an amidated carboxyl terminus [reference compound],–,–,–,–,320,–,186,–,–,–,–,–,–
HSDAVFTDNYTRLRKQLAAKKYLNDIKKGGT [Peptide R3P12],0.5,>200,76,–,302,> 100,324,significantly reduced,–,–,–,–,–
HSDAVFTENYTKLRKQLAAKKYLNDLLNGGT [Peptide R3P10],11,0.3,–,–,–,3,174,–,–,–,–,–,–
HSDAVFTDNYTRLRKQVAAKKYLQSIKKKR [Peptide R3P77],0.4,500,–,–,388,200,–,–,–,–,–,–,–
HSDAVFTDNYTRLRKQVAAKKYLQSIKK [Peptide R3P60],1,120,–,–,–,120,–,–,283,–,–,–,–
HSDAVFTDNYTRLRKQMAVKKYLNSIKKGGT [Peptide R3P9],2,20,–,–,–,40,221,–,–,–,–,–,–
CC[C@H](C)[C@H](NC(=O)[C@H](CO)NC(=O)[C@H](CCC(N)=O)NC(=O)[C@H](CC(C)C)NC(=O)[C@H](Cc1ccc(O)cc1)NC(=O)[C@H](CCCCN)NC(=O)[C@H](CCCCN)NC(=O)[C@@H](NC(=O)[C@H](C)NC(=O)[C@@H](NC(=O)[C@H](CCC(N)=O)NC(=O)[C@H](CCCCN)NC(=O)[C@H](CCCNC(=N)N)NC(=O)[C@H](CC(C)C)NC(=O)[C@H](CCCNC(=N)N)NC(=O)[C@@H](NC(=O)[C@H](Cc1ccc(O)cc1)NC(=O)[C@H](CC(N)=O)NC(=O)[C@H](CC(=O)O)NC(=O)[C@@H](NC(=O)[C@H](Cc1ccccc1)NC(=O)[C@@H](NC(=O)[C@H](C)NC(=O)[C@H](CC(=O)O)NC(=O)[C@H](CO)NC(=O)[C@@H](N)Cc1c[nH]cn1)C(C)C)[C@@H](C)O)[C@@H](C)O)C(C)C)C(C)C)C(=O)N[C@@H](CCCCN)C(=O)N[C@@H](CCCCN)C(=O)N[C@@H](CCCCN)C(=O)N[C@@H](CCCNC(=N)N)C(=O)O [Peptide R3P80],0.44,–,–,–,360,–,–,–,–,–,–,–,–
HSDAVFTDNYTRLRKQVAAKKYLQSIKNKRY [Peptide R3P66],0.4,250,82,–,–,100,184,–,388,–,–,–,–
HSDAVFTDNYTRLRKQVAVKKYLQSIKKK [Peptide R3P81],0.5,100,–,–,302,50,–,–,–,–,–,–,–
HSDAVFTENYTKLRKQLAAKKYLNDLKKGGT [Peptide R3P3],–,130,72,77,361,–,275,significantly reduced,–,0.75,markedly accelerated the disposal of blood glucose,100,significantly enhances the release of insulin
HSDAVFTDNYTRLRKQLAAKKYLNDIKK-NH2 [Peptide R3P13],5,33,–,–,–,163,–,significantly reduced,–,–,–,–,–
H-HSDAVFTDNYTRLRKQMAAKKYLNSIKNKRY [Peptide R3P55],0.17,280,–,–,–,50,–,–,208,–,–,–,–
HSDAVFTDNYTRLRKQMAAKKYLNSIKK [Peptide R3P51],0.26,90,–,–,–,23,–,–,259,–,–,–,–
